# “Also recorded” adds a separate entry of the source. Where no end group is shown, it is not given here.
# How the values were obtained:
# [1] = test system: GHSR labeled at I134^3.43, Y232^5.58, V268^6.40, F272^6.44, and S315^7.45; test: Effect of 7H4MC-ethylglycine labeling on ghrelin binding and Gq activation; format: biochemical, human; conditions: positions I134^3.43, Y232^5.58, V268^6.40, F272^6.44, S315^7.45
# GHSR = conditions: ref M'Kadmi et al., 2015; cited from earlier work
# [2] = test system: GHSR labeled with 7H4MC-ethylglycine at V268^6.40; test: Hydration parameter H from 7H4MC fluorescence emission; format: biochemical, human; conditions: for H parameter: 6.4, ligand 10 µM, POPC:POPG nanodiscs, 15°C, ex 320 nm
# Source text: (§1) We then investigated whether the fluorescence properties of 7H4MC-ethylglycine could report on the local hydration features of GHSR. To this end, we analyzed the 7H4MC emission profile for each of the positions considered. An excitation wavelength of 320 nm was systematically used to excite the neutral form of the fluorophore ([Amaro et al., 2015]). The emission spectra were deconvoluted into their separate components using the procedure initially described ([Amaro et al., 2015]). A hydration parameter H was then determined that corresponded to the sum of the contributions of the anionic and tautomer forms. This parameter is an indicator of the extent of hydration at the position considered, as the higher the H parameter the higher local hydration ([Amaro et al., 2015]). A difference in the H parameter inferred for the 7H4MC probe at the different positions of the apo GHSR was observed depending on the position considered (Figure 2—figure supplement 1, 2).
# (§2) Figure 2. Local hydration of growth hormone secretagogue receptor (GHSR) as a function of ligands. […] All ligands were used at a 10 µM concentration. In all cases, the data represents the mean value ± SD of three experiments. Statistical analyses are provided in […]—figure supplement 2 and 4. Figure 2—source data 1. H parameter for GHSR and its mutants. Figure 2—figure supplement 1. Emission spectra of L-(7-hydroxycoumarin-4-yl) (7H4MC)-ethylglycine incorporated into isolated growth hormone secretagogue receptor (GHSR). The spectra were recorded in the absence of ligand. The labeling positions are given in a snake-like plot of GHSR ([Shiimura et al., 2020]) (A) (red: positions deleterious to GHSR function; green: positions considered in this work), and then indicated in each panel (B–F). The excitation wavelength was set to 320 nm with an emission intensity recorded between 340 and 600 nm. The gray curve represents the experimental emission spectrum (exp). The red, blue, green, and magenta spectra represent the decomposition of the experimental spectrum into its neutral (N), complexed (C), anionic (A), and tautomeric (T) components, respectively. The orange curve (fit) corresponds to sum of the individual N, C, A, and T curves. Figure 2—figure supplement 1—source data 1. 7-H4MC emission intensity of the apo GHSR mutants. [drawing 7] Figure 2—figure supplement 2. Statistical analysis of the data in Figure 2. […] Data is from Figure 2. […] Structure of the ligands used throughout this work. [drawing 9] Figure 2—figure supplement 4. Statistical analysis of the data in Figure 2. The left panels show the hydration parameter for each of the mutants in the absence or in the presence of ligands. Data are from Figure 2. The right panels show the mean difference between the apo and the ligand-loaded states for each of the mutants with multiplicity-adjusted 95% confidence intervals. [drawing 10] Figure 2—figure supplement 5. Emission spectra of L-(7-hydroxycoumarin-4-yl) (7H4MC)-ethylglycine incorporated at position 5.58 of growth hormone secretagogue receptor (GHSR) in the presence of pharmacologically distinct ligands or phosphatidylinositol-4,5-bisphosphate (PIP2). […] The excitation wavelength was set to 320 nm with an emission intensity recorded between 340 and 600 nm. The black curve represents the experimental emission spectrum (exp). The red one (fit) corresponds to sum of the individual curves after decomposition of the experimental spectrum into its neutral, complexed, anionic, and tautomeric components. Figure 2—figure supplement 5—source data 1. 7-H4MC emission intensity of the GHSR 5.58 mutant in the presence of ligands. [drawing 11] Figure 2—figure supplement 6. […]
# [3] = test system: GHSR labeled with 7H4MC-ethylglycine at S315^7.45; test: as above; format: biochemical, human; conditions: ligand 10 µM, POPC:POPG nanodiscs, 15°C, ex 320 nm
# Source text: as §1, §2
# [4] = test system: GHSR labeled with 7H4MC-ethylglycine at F272^6.44; test: as above; format: biochemical, human; conditions: for H parameter: 6.44
# Source text: as §1, §2
# [5] = test system: GHSR labeled with 7H4MC-ethylglycine at Y232^5.58; test: as above; format: biochemical, human; conditions: for H parameter: 5.58
# Source text: as §1, §2
# isolated GHSR = conditions: ghrelin versus SPA; ref Mary et al., 2012; cited from earlier work
# Source text: We then used 7H4MC fluorescence to monitor the impact of ligand binding on the hydration pattern of GHSR.
# 7H4MC-labeled GHSR = test: Hydration parameter H from 7H4MC fluorescence emission, several positions together; format: biochemical, human; conditions: positions besides 5.58 and 6.44; saturating ligand (10 µM); vs apo
# Source text: as §1
# Figure 2. Local hydration of growth hormone secretagogue receptor (GHSR) as a function of ligands. […] All ligands were used at a 10 µM concentration. […] The spectra were recorded in the absence of ligand. […] The excitation wavelength was set to 320 nm with an emission intensity recorded between 340 and 600 nm. […] The excitation wavelength was set to 320 nm with an emission intensity recorded between 340 and 600 nm. […]
# [6] = test system: GHSR F272^6.44 to alanine mutant; conditions: mutating F272^6.44 to alanine; ref Valentin-Hansen et al., 2012; cited from earlier work
# Source text: (§3) The fluorescent probe was introduced at different positions along GHSR sequence. […] The absence of major effect on substituting F272^6.44 with 7H4MC-ethylglycine on GHSR functioning was puzzling, as mutating this residue to an ala ...
# GHSR F272^6.44 mutants = conditions: ref Valentin-Hansen et al., 2012, cited from earlier work
# Source text: as §3
# [7] = test system: GHSR labeled with 7H4MC-ethylglycine at W215^5.41; test: Ligand binding and activation of W215^5.41-labeled receptor; format: biochemical, human; conditions: basal activity markedly decreased
# [8] = saturating ligand (10 µM), vs apo
# [9] = ligand 10 µM, POPC:POPG nanodiscs, 15°C, ex 320 nm, replicate 1
# [10] = ligand 10 µM, POPC:POPG nanodiscs, 15°C, ex 320 nm, replicate 2
# [11] = ligand 10 µM, POPC:POPG nanodiscs, 15°C, ex 320 nm, replicate 3
# [12] = Figure 5, 10 µM ghrelin, 2.5% PIP2-to-total lipids molar ratio, replicate 1
# [13] = Figure 5, 10 µM ghrelin, 2.5% PIP2-to-total lipids molar ratio, replicate 2
# [14] = Figure 5, 10 µM ghrelin, 2.5% PIP2-to-total lipids molar ratio, replicate 3
# [15] = Figure 5, 10 µM ghrelin, no PIP2, replicate 1
# [16] = Figure 5, 10 µM ghrelin, no PIP2, replicate 2
# [17] = Figure 5, 10 µM ghrelin, no PIP2, replicate 3
substance,measurement,setting,value
"ghrelin: natural full agonist of GHSR, natural peptide agonist (GSSFLSPEHQRVQQRKESKKPPAKLQPR; not fully specified; ends and bridges not checked; UniProt Q9UBU3 24-51, looked up)",effect of labeling on ghrelin binding and receptor-catalyzed Gq activation,[1],essentially neutral with regard to the ability of the receptor to bind ghrelin and activate Gq; also recorded: affected neither ghrelin binding nor the receptor-catalyzed Gq activation in a relevant manner
same,pharmacological class,GHSR,natural full agonist
same,H parameter,[2]; replicate 1,61.86
same,H parameter,[2]; replicate 2,65.16
same,H parameter,[2]; replicate 3,62.17
same,change in the hydration parameter at V268^6.40,[2]; [8],no change was observed for V268^6.40
same,H parameter,[3]; replicate 1,24.96
same,H parameter,[3]; replicate 2,23.88
same,H parameter,[3]; replicate 3,21.19
same,H parameter,[4]; [9],21.07
same,H parameter,[4]; [10],20.32
same,H parameter,[4]; [11],19.11
same,H parameter,[4]; [12],15.658
same,H parameter,[4]; [13],15.178
same,H parameter,[4]; [14],13.342
same,H parameter,[4]; [15],18.095
same,H parameter,[4]; [16],20.174
same,H parameter,[4]; [17],21.958
same,change in the hydration parameter at position 6.44 upon binding,[4]; [8],local hydration at position 6.44 decreased
same,H parameter,[5]; [9],48.83
same,H parameter,[5]; [10],49.38
same,H parameter,[5]; [11],47.22
same,H parameter,[5]; [12],60.136
same,H parameter,[5]; [13],58.145
same,H parameter,[5]; [14],61.325
same,H parameter,[5]; [15],49.568
same,H parameter,[5]; [16],47.078
same,H parameter,[5]; [17],48.124
same,change in the hydration parameter at position 5.58 upon binding,[5]; [8],increase in the hydration parameter at position 5.58
same,effect of ghrelin and SPA on GHSR activation and conformational landscape,isolated GHSR,opposite effect of ghrelin and SPA on GHSR activation and conformational landscape
same,change in the hydration parameter at other positions,7H4MC-labeled GHSR,no relevant change in the hydration parameter
same,"ghrelin binding affinity, F272^6.44 to alanine",[6],without affecting ghrelin binding affinity
same,"ghrelin-induced signaling, F272^6.44 to alanine",GHSR F272^6.44 mutants; mutating F272^6.44 to alanine,reduce ghrelin-induced signaling
same,"basal- and ghrelin-induced GHSR activity, F272^6.44 to tyrosine","GHSR F272^6.44 mutants; replacing phenylalanine with tyrosine, compared with alanine",far lower impact on both basal- and ghrelin-induced GHSR activity
same,ligand binding and activation of W215^5.41 mutant,[7],could still bind its ligands and be activated by ghrelin
